The record followed here is patent US20240246977A1, “DEGRADATION OF BRUTON'S TYROSINE KINASE (BTK) BY CONJUGATION OF BTK INHIBITORS WITH E3 LIGASE LIGAND AND METHOD OF USE” (BeiGene Switzerland GmbH, priority 2021, published 2024).

A word on the DC50: it is the concentration giving 50% degradation. Low values mean degradation at low concentration, high ones degradation only at high concentration.

SMILES strings stand for the structures.

The subject of assay [1] is HEK-293 cells. In words: HEK-293 cytotoxicity detection (CellTiter-Glo). The class given is cell-based. Particulars: Homo sapiens, 72 h, 72 h incubation, CellTiter-Glo luminescence, read-out: HEK293. The procedure, abridged:
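HEK-293 cells exposed 72 h to 8 compounds doses (4-fold dilutions, top stock 5 mM at 500×) in 0.2% DMSO. Viability by CellTiter-Glo luminescence; inhibition normalised to DMSO high control and low control, IC50 from four-parameter curve fit.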
(In general: In ATP-based viability assays light output follows the ATP content of the culture.)

The target of assay [2] is BTK (Homo sapiens, UniProt Q06187). In words: BTK cell degradation in TMD-8 cells, HTRF assay. It counts as cell-based. On the set-up: endogenous in cells; host or cells: TMD-8 cells. Particulars: 6 h treatment, IC50 (DC50) of BTK degradation. The method in brief:
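TMD-8 cells treated 6 h with 8-dose series (6-fold dilutions, 0.2% DMSO final), then lysed and BTK quantified by HTRF (337/665/620 nm) after overnight antibody incubation at room temperature. Degradation normalized to DMSO high and low controls; DC50 and Dmax from four-parameter fit.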
(Time-resolved FRET reads energy transfer from a long-lived donor to a nearby acceptor.)

Chain of BTK (Q06187 whole entry): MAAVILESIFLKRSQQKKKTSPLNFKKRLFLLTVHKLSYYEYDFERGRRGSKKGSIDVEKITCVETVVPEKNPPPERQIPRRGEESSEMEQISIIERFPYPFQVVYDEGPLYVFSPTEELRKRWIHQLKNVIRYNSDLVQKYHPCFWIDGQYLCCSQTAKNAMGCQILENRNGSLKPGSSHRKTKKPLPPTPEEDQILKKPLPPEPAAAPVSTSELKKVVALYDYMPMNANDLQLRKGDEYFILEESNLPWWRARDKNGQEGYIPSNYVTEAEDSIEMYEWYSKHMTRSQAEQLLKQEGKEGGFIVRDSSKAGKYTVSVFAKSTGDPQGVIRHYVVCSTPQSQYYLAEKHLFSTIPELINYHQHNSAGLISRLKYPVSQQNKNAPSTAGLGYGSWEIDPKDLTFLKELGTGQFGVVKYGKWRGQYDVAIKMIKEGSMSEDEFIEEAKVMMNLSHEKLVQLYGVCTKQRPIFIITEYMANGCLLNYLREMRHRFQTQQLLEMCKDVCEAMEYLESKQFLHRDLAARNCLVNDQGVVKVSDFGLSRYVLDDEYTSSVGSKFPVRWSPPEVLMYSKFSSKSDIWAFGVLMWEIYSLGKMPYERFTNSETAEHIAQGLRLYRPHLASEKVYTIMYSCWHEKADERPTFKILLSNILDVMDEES

For `COc1ccc(C(=O)NCc2ccc(-c3nn4c(c3C(N)=O)Nc3ccc(N5CCN(CC6CCN(c7ccc(N8CCC(=O)NC8=O)cc7)CC6)CC5)cc3CC4)cc2)c(OC)c1` [Example C23, 2-(4-((2,4-dimethoxybenzamido)methyl)phenyl)-7-(4-((1-(4-(2,4-dioxotetrahydropyrimidin-1(2H)-yl)phenyl)piperidin-4-yl)methyl)piperazin-1-yl)-9,10-dihydro-4H-benzo[d]pyrazolo[1,5-a][1,3]diazepine-3-carboxamide], the IC50 in assay [1] was > 10000 nM. In assay [2], this compound returned a DC50 of 2 nM.
The matching figures for `COc1ccc(C(F)(F)F)cc1C(=O)NCc1ccc(-c2nn3c(c2C(N)=O)Nc2ccc(N4CCN(CC5CCN(c6ccc(N7CCC(=O)NC7=O)cc6)CC5)CC4)cc2CC3)c(F)c1` [Example C24, 7-(4-((1-(4-(2,4-dioxotetrahydropyrimidin-1(2H)-yl)phenyl)piperidin-4-yl)methyl)piperazin-1-yl)-2-(2-fluoro-4-((2-methoxy-5-(trifluoromethyl)benzamido)methyl)phenyl)-9,10-dihydro-4H-benzo[d]pyrazolo[1,5-a][1,3]diazepine-3-carboxamide]: > 10000 nM and 2.11 nM.
For the compound `COc1ccc(F)c(F)c1C(=O)NCc1ccc(-c2nn3c(c2C(N)=O)Nc2ccc(N4CCN(CC5CCN(c6ccc(N7CCC(=O)NC7=O)cc6)CC5)CC4)cc2CC3)cc1` [Example C25, 2-(4-((2,3-difluoro-6-methoxybenzamido)methyl)phenyl)-7-(4-((1-(4-(2,4-dioxotetrahydropyrimidin-1(2H)-yl)phenyl)piperidin-4-yl)methyl)piperazin-1-yl)-9,10-dihydro-4H-benzo[d]pyrazolo[1,5-a] [1,3]diazepine-3-carboxamide], the IC50 in assay [1] was > 10000 nM. For the same compound, it took 0.611 nM to reach half-maximal degradation in assay [2] (DC50).
The matching figures for `COc1ccc(C(F)(F)F)cc1C(=O)NCc1ccc(-c2nn3c(c2C(N)=O)Nc2ccc(N4CCN(CC5CCN(c6ccc(N7CCC(=O)NC7=O)cc6)CC5)CC4)cc2CC3)cc1F` [Example C26, 7-(4-((1-(4-(2,4-dioxotetrahydropyrimidin-1(2H)-yl)phenyl)piperidin-4-yl)methyl)piperazin-1-yl)-2-(3-fluoro-4-((2-methoxy-5-(trifluoromethyl)benzamido)methyl)phenyl)-9,10-dihydro-4H-benzo[d]pyrazolo[1,5-a][1,3]diazepine-3-carboxamide]: 108 nM and 1.79 nM.
The matching figures for `COc1ccc(C(F)(F)F)cc1C(=O)NCc1ccc(-c2nn3c(c2C(N)=O)Nc2ccc(N4CCN(CC5CCN(c6ccc(N7CCC(=O)NC7=O)cc6)CC5)CC4)cc2CC3)c(OC)c1` [Example C27, 7-(4-((1-(4-(2,4-dioxotetrahydropyrimidin-1(2H)-yl)phenyl)piperidin-4-yl)methyl)piperazin-1-yl)-2-(2-methoxy-4-((2-methoxy-5-(trifluoromethyl)benzamido)methyl)phenyl)-9,10-dihydro-4H-benzo[d]pyrazolo[1,5-a][1,3]diazepine-3-carboxamide]: 209 nM and 1.76 nM.
On to `COc1ccc(C(F)(F)F)cc1C(=O)NCc1ccc(-c2nn3c(c2C(N)=O)Nc2ccc(N4CCN(CC5CCN(c6ccc(N7CCC(=O)NC7=O)cc6)CC5)CC4)cc2CC3)c(F)c1F` [Example C28, 2-(2,3-difluoro-4-((2-methoxy-5-(trifluoromethyl)benzamido)methyl)phenyl)-7-(4-((1-(4-(2,4-dioxotetrahydropyrimidin-1(2H)-yl)phenyl)piperidin-4-yl)methyl)piperazin-1-yl)-9,10-dihydro-4H-benzo[d]pyrazolo[1,5-a][1,3]diazepine-3-carboxamide], for which the IC50 in assay [1] was > 10000 nM. For the same compound, half-maximal degradation in assay [2] (DC50) was put at 1.15 nM.
As for `COc1ccc(C2CC2)cc1C(=O)NCc1ccc(-c2nn3c(c2C(N)=O)Nc2ccc(N4CCN(CC5CCN(c6ccc(N7CCC(=O)NC7=O)cc6)CC5)CC4)cc2CC3)cc1` [Example C29, 2-(4-((5-cyclopropyl-2-methoxybenzamido)methyl)phenyl)-7-(4-((1-(4-(2,4-dioxotetrahydropyrimidin-1(2H)-yl)phenyl)piperidin-4-yl)methyl)piperazin-1-yl)-9,10-dihydro-4H-benzo[d]pyrazolo[1,5-a][1,3]diazepine-3-carboxamide], in assay [1], the IC50 is > 10000 nM. This compound came in with a DC50 in assay [2] of 1.56 nM.
Consider `COc1cc(F)c(F)cc1C(=O)NCc1ccc(-c2nn3c(c2C(N)=O)Nc2ccc(N4CCN(CC5CCN(c6ccc(N7CCC(=O)NC7=O)cc6)CC5)CC4)cc2CC3)cc1` [Example C30, 2-(4-((4,5-difluoro-2-methoxybenzamido)methyl)phenyl)-7-(4-((1-(4-(2,4-dioxotetrahydropyrimidin-1(2H)-yl)phenyl)piperidin-4-yl)methyl)piperazin-1-yl)-9,10-dihydro-4H-benzo[d]pyrazolo[1,5-a][1,3]diazepine-3-carboxamide], for which the IC50 in assay [1] is > 10000 nM. The compound also had a DC50 in assay [2] of 0.786 nM.
On to `COc1cc(C)ccc1C(=O)NCc1ccc(-c2nn3c(c2C(N)=O)Nc2ccc(N4CCN(CC5CCN(c6ccc(N7CCC(=O)NC7=O)cc6)CC5)CC4)cc2CC3)cc1C` [Example C31, 7-(4-((1-(4-(2,4-dioxotetrahydropyrimidin-1(2H)-yl)phenyl)piperidin-4-yl)methyl)piperazin-1-yl)-2-(4-((2-methoxy-4-methylbenzamido)methyl)-3-methylphenyl)-9,10-dihydro-4H-benzo[d]pyrazolo[1,5-a][1,3]diazepine-3-carboxamide], for which the IC50 in assay [1] is > 10000 nM. In addition, the DC50 in assay [2] came out at 7.02 nM.
The matching figures for `COc1ccccc1C(=O)NCc1ccc(-c2nn3c(c2C(N)=O)Nc2ccc(N4CCN(CC5CCN(c6ccc(N7CCC(=O)NC7=O)cc6)CC5)CC4)cc2CC3)cc1C` [Example C32, 7-(4-((1-(4-(2,4-dioxotetrahydropyrimidin-1(2H)-yl)phenyl)piperidin-4-yl)methyl)piperazin-1-yl)-2-(4-((2-methoxybenzamido)methyl)-3-methylphenyl)-9,10-dihydro-4H-benzo[d]pyrazolo[1,5-a][1,3]diazepine-3-carboxamide]: > 10000 nM and 3.1 nM.
The matching figures for `COc1cc(F)c(F)cc1C(=O)NCc1ccc(-c2nn3c(c2C(N)=O)Nc2ccc(N4CCN(CC5CCN(c6ccc(N7CCC(=O)NC7=O)cc6)CC5)CC4)cc2CC3)cc1C` [Example C33, 2-(4-((4,5-difluoro-2-methoxybenzamido)methyl)-3-methylphenyl)-7-(4-((1-(4-(2,4-dioxotetrahydropyrimidin-1(2H)-yl)phenyl)piperidin-4-yl)methyl)piperazin-1-yl)-9,10-dihydro-4H-benzo[d]pyrazolo[1,5-a][1,3]diazepine-3-carboxamide]: > 10000 nM and 9.19 nM.
Consider `COc1ncccc1C(=O)NCc1ccc(-c2nn3c(c2C(N)=O)Nc2ccc(N4CCN(CC5CCN(c6ccc(N7CCC(=O)NC7=O)cc6)CC5)CC4)cc2CC3)cc1C` [Example C34, 7-(4-((1-(4-(2,4-dioxotetrahydropyrimidin-1(2H)-yl)phenyl)piperidin-4-yl)methyl)piperazin-1-yl)-2-(4-((2-methoxynicotinamido)methyl)-3-methylphenyl)-9,10-dihydro-4H-benzo[d]pyrazolo[1,5-a][1,3]diazepine-3-carboxamide], for which the IC50 in assay [1] was > 10000 nM. Besides, in assay [2], half-maximal degradation (DC50) was put at 3.91 nM.
In the case of `COc1ccncc1C(=O)NCc1ccc(-c2nn3c(c2C(N)=O)Nc2ccc(N4CCN(CC5CCN(c6ccc(N7CCC(=O)NC7=O)cc6)CC5)CC4)cc2CC3)cc1C` [Example C35, 7-(4-((1-(4-(2,4-dioxotetrahydropyrimidin-1(2H)-yl)phenyl)piperidin-4-yl)methyl)piperazin-1-yl)-2-(4-((4-methoxynicotinamido)methyl)-3-methylphenyl)-9,10-dihydro-4H-benzo[d]pyrazolo[1,5-a][1,3]diazepine-3-carboxamide], the IC50 in assay [1] is > 10000 nM. This compound had a DC50 in assay [2] of 1.1 nM.
For `COc1cccnc1C(=O)NCc1ccc(-c2nn3c(c2C(N)=O)Nc2ccc(N4CCN(CC5CCN(c6ccc(N7CCC(=O)NC7=O)cc6)CC5)CC4)cc2CC3)cc1C` [Example C36], the IC50 in assay [1] is > 10000 nM. Further, it took 6.66 nM to reach half-maximal degradation in assay [2] (DC50).
The matching figures for `COc1cnccc1C(=O)NCc1ccc(-c2nn3c(c2C(N)=O)Nc2ccc(N4CCN(CC5CCN(c6ccc(N7CCC(=O)NC7=O)cc6)CC5)CC4)cc2CC3)cc1C` [Example C37, 7-(4-((1-(4-(2,4-dioxotetrahydropyrimidin-1(2H)-yl)phenyl)piperidin-4-yl)methyl)piperazin-1-yl)-2-(4-((3-methoxyisonicotinamide)methyl)-3-methylphenyl)-9,10-dihydro-4H-benzo[d]pyrazolo[1,5-a][1,3]diazepine-3-carboxamide]: > 10000 nM and 12.4 nM.
For the compound `COc1cccc(C)c1C(=O)NCc1ccc(-c2nn3c(c2C(N)=O)Nc2ccc(N4CCN(CC5CCN(c6ccc(N7CCC(=O)NC7=O)cc6)CC5)CC4)cc2CC3)cc1C` [Example C38, 7-(4-((1-(4-(2,4-dioxotetrahydropyrimidin-1(2H)-yl)phenyl)piperidin-4-yl)methyl)piperazin-1-yl)-2-(4-((2-methoxy-6-methylbenzamido)methyl)-3-methylphenyl)-9,10-dihydro-4H-benzo[d]pyrazolo[1,5-a][1,3]diazepine-3-carboxamide], the IC50 in assay [1] is > 10000 nM. In addition, in assay [2], it took 7.96 nM to reach half-maximal degradation (DC50).
